From patent US20250320215A1, “SALTS OF N-[4-(4-[[2-(DIMETHYLAMINO)ETHYL]AMINO]-3-METHYL-1H-PYRAZOLO[3,4-D]PYRIMIDIN-6-YL)-2-FLUOROPHENYL]-2,5-DIFLUOROBENZENESULFONAMIDE AND CRYSTALLINE FORMS THEREOF” (THRYV THERAPEUTICS INC, priority 2022, published 2025)
Where two headings read alike, the source gives them in different places.

Key:
Assay type in all cases: physicochemical
[1] = Water activity study (competition of forms, XRPD); settings: for XPRD results, Form: room temperature
Method: Water activity study was performed using Compound 3 Form B (anhydrate) as the input material in EtOH/Water with different water content at RT. About 5 mg of Compound 3, Form B was used to prepare saturated solutions and the solutions were filtered by syringe at RT. 5 mg of Compound 3, Form D were added in the 1 mL of filtrate, and the suspension was slurried at RT for 3 and 7 days. The solids collected after filtration were analyzed by XRPD.
Protocol: excess amount of Compound 4 Form B was used to prepare saturated solutions. 6-8 mg each of Compound 4 Form B and Form D were added in the solutions. The suspension was slurried at room temperature for the corresponding times. Residual solids were collected by filtration with syringe filter, and characterized by XRPD.

[2] = Estimated solubility by solvent addition method via visual assessment; settings: thermodynamic from solid, read-out: Solubility, Concentration
Method: Solubility of Compound 3 Form B was estimated in 30 solvents at room temperature and in 9 organic solvents at 70° C. using solvent addition method via visual assessment.
Protocol: about 3 mg of Compound 3 Form B was weighed into a sample vial and the solvent was added gradually with vortex until the drug solution was clear by observation or a total of 2 mL solvent was added. Then, the estimated solubility (mg/mL) was calculated.
Solubility of Compound 4, Form B was estimated in 18 solvents at room temperature using solvent addition method via visual assessment. About 3 mg of Compound 4, Form B was weighed into a sample vial and the solvent was added gradually with vortex until the solution was clear by observation or a total of 2 mL solvent was added. Then, the estimated solubility (mg/mL) was calculated.

[3] = Slurry study evaluated by XRPD
Method: About 20 mg of Compound 3, Form B was weighed into a sample vial and then 1 mL of solvent was added to make a suspension. The suspension was stirred at room temperature or 50° C. for 3 days and 11 days. Then, the wet solid was collected by filtration and analyzed by XRPD.
20-30 mg of Compound 4 Form B was added in 1 mL of selected solvents at room temperature or 50° C. The suspension was slurried at room temperature or 50° C. for 3 days and 11 days. The wet solids collected from filtration were examined by XRPD. There were four crystal forms obtained by slurrying, including di-mesylate Forms B, C and D as well as mono-mesylate Form G.

[4] = Competitive slurry experiment evaluated by XRPD
From the text: Competitive slurry experiment for Compound 4 Form B and Form D Competitive slurry experiments of Compound 4 Form B and Form D were set up to verify the relative stability relationship. It was supposed that Form D was the stable form at high water activity, while Form B was stable at low water activity. All the solvents used was analytical grade and should contained trace amounts of water. […] The water activity at elevated temperature is lower than at low temperature. Therefore, Form B was obtained in ACN at 50° C., while Form D was the stable form at room temperature.

[5] = slurry at 50° C., printed at MeOH

## Cc1n[nH]c2nc(-c3ccc(NS(=O)(=O)c4cc(F)ccc4F)c(F)c3)nc(NCCN(C)C)c12.Cl [Compound 3 Form B + D]
[1]; EtOH/Water 24.7/75.3 (V/%), aW 0.92, RT
  XPRD results 3 D/Wet, 7 D/Wet, 7 D/Dried: Form D + extra peak
[1]; EtOH/Water 58.1/41.9 (V/%), aW 0.82, RT
  XPRD results 3 D/Wet, 7 D/Wet, 7 D/Dried: Form D + extra peak
[1]; EtOH/Water 82.9/17.1 (V/%), aW 0.64, RT
  XPRD results 3 D/Wet, 7 D/Wet, 7 D/Dried: Form D
[1]; EtOH/Water 92.8/7.2 (V/%), aW 0.41, RT
  XPRD results 3 D/Wet, 7 D/Wet, 7 D/Dried: Form D
[1]; EtOH/Water 97/3 (V/%), aW 0.21, RT
  XPRD results 3 D/Wet, 7 D/Wet, 7 D/Dried: Form D
[1]; EtOH/Water 98.4/1.6 (V/%), aW 0.12, RT
  XPRD results 3 D/Wet, 7 D/Wet, 7 D/Dried: Form D

## Cc1n[nH]c2nc(-c3ccc(NS(=O)(=O)c4cc(F)ccc4F)c(F)c3)nc(NCCN(C)C)c12.Cl [Compound 3 Form B]
[2]; aqueous with cosolvent or surfactant or cyclodextrin, Acetone/Water (1/1), RT
  solubility: < 1500 µg/mL
[2]; organic solvent or mixture, 1,4-Dioxane, RT
  solubility: < 1500 µg/mL
[2]; organic solvent or mixture, 2-Me-THF, RT
  solubility: < 1500 µg/mL
[2]; organic solvent or mixture, ACN, RT
  solubility: < 1500 µg/mL
[2]; organic solvent or mixture, ACN/Water (9/1), RT
  solubility: 1500 to 1700 µg/mL
[2]; organic solvent or mixture, Acetic acid, 70° C.
  solubility: < 1500 µg/mL
[2]; organic solvent or mixture, Acetic acid, RT
  solubility: < 1500 µg/mL
[2]; organic solvent or mixture, Acetone, 70° C.
  solubility: < 1500 µg/mL
[2]; organic solvent or mixture, Acetone, RT
  solubility: < 1500 µg/mL
[2]; organic solvent or mixture, Acetone/MeOH (1/1), RT
  solubility: 1500 to 1600 µg/mL
[2]; organic solvent or mixture, Benzyl alcohol, 70° C.
  solubility: < 1500 µg/mL
[2]; organic solvent or mixture, Benzyl alcohol, RT
  solubility: < 1500 µg/mL
[2]; organic solvent or mixture, DCM, RT
  solubility: < 1500 µg/mL
[2]; organic solvent or mixture, DCM/MeOH (3/1), RT
  solubility: < 1500 µg/mL
[2]; organic solvent or mixture, DMA, 70° C.
  solubility: 20000 to 40000 µg/mL
[2]; organic solvent or mixture, DMA, RT
  solubility: 3000 to 3300 µg/mL
[2]; organic solvent or mixture, DMF, 70° C.
  solubility: 16700 to 20000 µg/mL
[2]; organic solvent or mixture, DMF, RT
  solubility: 2000 to 3000 µg/mL
[2]; organic solvent or mixture, DMSO, 70° C.
  solubility: > 40000 µg/mL
[2]; organic solvent or mixture, DMSO, RT
  solubility: 5400 to 5500 µg/mL
[2]; organic solvent or mixture, EA, RT
  solubility: < 1500 µg/mL
[2]; organic solvent or mixture, EtOH, 70° C.
  solubility: < 1500 µg/mL
[2]; organic solvent or mixture, EtOH, RT
  solubility: < 1500 µg/mL
[2]; organic solvent or mixture, IPA, RT
  solubility: < 1500 µg/mL
[2]; organic solvent or mixture, IPAC, RT
  solubility: < 1500 µg/mL
[2]; organic solvent or mixture, IPE, RT
  solubility: < 1500 µg/mL
[2]; organic solvent or mixture, MEK, RT
  solubility: < 1500 µg/mL
[2]; organic solvent or mixture, MIBK, RT
  solubility: < 1500 µg/mL
[2]; organic solvent or mixture, MTBE, RT
  solubility: < 1500 µg/mL
[2]; organic solvent or mixture, Me-cyclohexane, RT
  solubility: < 1500 µg/mL
[2]; organic solvent or mixture, MeOH, RT
  solubility: < 1500 µg/mL
[2]; organic solvent or mixture, MeOH/Water (9/1), RT
  solubility: 2500 to 3000 µg/mL
[2]; organic solvent or mixture, NMP, 70° C.
  solubility: > 40000 µg/mL
[2]; organic solvent or mixture, NMP, RT
  solubility: 3000 to 3800 µg/mL
[2]; organic solvent or mixture, THF, 70° C.
  solubility: < 1500 µg/mL
[2]; organic solvent or mixture, THF, RT
  solubility: < 1500 µg/mL
[2]; organic solvent or mixture, THF/Water (9/1), RT
  solubility: 1600 to 1900 µg/mL
[2]; organic solvent or mixture, n-Heptane, RT
  solubility: < 1500 µg/mL
[2]; Water, RT
  solubility: < 1500 µg/mL
[3]; [5]
  XRPD Day 3/Wet: Form D
  XRPD Day 11/Wet: Form D
[3]; slurry at RT, 1,4-Dioxane 1 mL, cell apparently merged down for IPA, IPAC, MTBE, Water, n-Heptane, Acetone, EA, ACN, DCM, MIBK, MEK
  XRPD Day 3/Wet: Form D
[3]; slurry at RT, EtOH 1 mL
  XRPD Day 3/Wet: Form D
[3]; slurry at RT, MeOH 1 mL
  XRPD Day 3/Wet: Amorphous
[3]; slurry at RT, THF 1 mL
  XRPD Day 3/Wet: Amorphous
[3]; slurry at RT, printed at MeOH
  XRPD Day 11/Wet: Form D

## Cc1n[nH]c2nc(-c3ccc(NS(=O)(=O)c4cc(F)ccc4F)c(F)c3)nc(NCCN(C)C)c12 [Compound 4 Forms B + D]
[1]; ACN/water, aW 0.37, 8 d
  XPRD results, Form: Form D
[1]; ACN/water, aW 0.37, 14 d
  XPRD results, Form: Form D
[1]; ACN/water, aW 0.58, 8 d
  XPRD results, Form: Form D
[1]; ACN/water, aW 0.58, 14 d
  XPRD results, Form: Form D
[1]; ACN/water, aW 0.78, 8 d
  XPRD results, Form: Form D
[1]; ACN/water, aW 0.78, 14 d
  XPRD results, Form: Form D
[1]; ACN/water, aW 0.90, 8 d
  XPRD results, Form: Form D
[1]; ACN/water, aW 0.90, 14 d
  XPRD results, Form: Form D
[1]; MeOH/water, aW 0.08, 3 d
  XPRD results, Form: Forms B + D
[1]; MeOH/water, aW 0.08, 7 d
  XPRD results, Form: Form B
[1]; MeOH/water, aW 0.16, 3 d
  XPRD results, Form: Form D
[1]; MeOH/water, aW 0.16, 7 d
  XPRD results, Form: Form D
[4]; ACN, 50° C.
  Results 8 d (XRPD): Form B
  Results 14 d (XRPD): Form B
[4]; ACN, RT
  Results 8 d (XRPD): Form B + Form D
  Results 14 d (XRPD): Form D
[4]; IPAC, 50° C.
  Results 8 d (XRPD): Form D
  Results 14 d (XRPD): Form D
[4]; IPAC, RT
  Results 8 d (XRPD): Form D
  Results 14 d (XRPD): Form D
[4]; MeOH, 50° C.
  Results 8 d (XRPD): Form B
  Results 14 d (XRPD): Form B
[4]; MeOH, RT
  Results 8 d (XRPD): Form B
  Results 14 d (XRPD): Form B
